Assays:
human LINE-1 = experiment: Human LINE-1 (L1) retrotransposition dual-luciferase reporter assay in HeLa cells; assay type: cell-based; conditions: Homo sapiens, HeLa, 72 h, read-out: Human LINE-1 IC50 (Human L1 activity inhibition)
In short: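 Compound dilution series (final DMSO 0.2%) added right after transfecting HeLa cells with the pYX017 L1 dual-luciferase reporter; 72 h culture at 37 °C, 5% CO2, triplicates. IC50 fitted by non-linear logistic regression to firefly-to-Renilla luminescence ratio (×10,000).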

cancer cell lines = experiment: Cancer cell proliferation activity of representative nucleosides, CellTiterGlo 72 h (Example 7, Tables 8 and 9); assay type: cell-based; conditions: 72 h
In short: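 Percent viability was set against 0.1% DMSO (100%) and 10 μM staurosporine (0%), with signal from CellTiterGlo luminescence. Dose-response treatment began one day after seeding and lasted 72 h at 37° C under 5% or 10% CO2, with 0.1% final DMSO.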

C#C[C@]1(CO)O[C@@H](n2cnc3c(=O)[nH]c(N)nc32)C[C@@H]1O [compound 13]
IC50 (human LINE-1): 0.00051 µM
IC50 (cancer cell lines; 72 h, 5637, bladder): 2.27 µM
IC50 (cancer cell lines; CLS439, bladder): > 50 µM
IC50 (cancer cell lines; HS729, muscle): 1.51 µM
IC50 (cancer cell lines; J82, bladder): 1.97 µM
IC50 (cancer cell lines; JAR, placenta): > 50 µM
IC50 (cancer cell lines; MT3, breast): 0.37 µM
IC50 (cancer cell lines; PC3, prostate): 1.8 µM
IC50 (cancer cell lines; RD, muscle): > 50 µM
IC50 (cancer cell lines; T24, bladder): 4.54 µM
IC50 (cancer cell lines; Homo sapiens, 22Rv1, 72 h, 22RV1, prostate): 2.22 µM
IC50 (cancer cell lines; Homo sapiens, 786-0, 72 h, 786O, kidney): > 50 µM
IC50 (cancer cell lines; Homo sapiens, A204, 72 h, A204, muscle): 0.27 µM
IC50 (cancer cell lines; Homo sapiens, A549, 72 h, A549, lung): 2.06 µM
IC50 (cancer cell lines; Homo sapiens, A673, 72 h, A673, bone): > 50 µM
IC50 (cancer cell lines; Homo sapiens, A2780, 72 h, A2780, ovary): 15.6 µM
IC50 (cancer cell lines; Homo sapiens, A-375, 72 h, A375, skin): 2.35 µM
IC50 (cancer cell lines; Homo sapiens, A-431, 72 h, A431, skin): 3.03 µM
IC50 (cancer cell lines; Homo sapiens, ACHN, kidney): 1.44 µM
IC50 (cancer cell lines; Homo sapiens, ASPC1, 72 h, ASPC1, pancreas): 1.33 µM
IC50 (cancer cell lines; Homo sapiens, BT-20, 72 h, BT20, breast): > 50 µM
IC50 (cancer cell lines; Homo sapiens, BXPC-3, 72 h, BXPC3, pancreas): 1.43 µM
IC50 (cancer cell lines; Homo sapiens, C-33-A, C33A, endometrial): 2.03 µM
IC50 (cancer cell lines; Homo sapiens, CAKI-1, 72 h, CAKI1, kidney): 1.84 µM
IC50 (cancer cell lines; Homo sapiens, COLO 205, 72 h, COLO205, colon): 1.47 µM
IC50 (cancer cell lines; Homo sapiens, COLO-678, 72 h, COLO678, colon): 4.09 µM
IC50 (cancer cell lines; Homo sapiens, Ca-Ski, CASKI, endometrial): > 50 µM
IC50 (cancer cell lines; Homo sapiens, Caco-2, 72 h, CACO2, colon): > 50 µM
IC50 (cancer cell lines; Homo sapiens, Calu-6, 72 h, CALU6, lung): > 50 µM
IC50 (cancer cell lines; Homo sapiens, DLD-1, 72 h, DLD1, colon): > 50 µM
IC50 (cancer cell lines; Homo sapiens, DU-145, 72 h, DU145, prostate): 4.07 µM
IC50 (cancer cell lines; Homo sapiens, EFO-21, 72 h, EFO21, ovary): 4 µM
IC50 (cancer cell lines; Homo sapiens, EJ-28, 72 h, EJ28, bladder): 6.82 µM
IC50 (cancer cell lines; Homo sapiens, Granta-519, 72 h, GRANTA-519, hematological): 2.44 µM
IC50 (cancer cell lines; Homo sapiens, HCT-15, 72 h, HCT15, colon): > 50 µM
IC50 (cancer cell lines; Homo sapiens, HCT-116, 72 h, HCT116, colon): 3.37 µM
IC50 (cancer cell lines; Homo sapiens, HEK293, 72 h, HEK293, kidney): 7.69 µM
IC50 (cancer cell lines; Homo sapiens, HL-60, 72 h, HL-60, hematological): 2.06 µM
IC50 (cancer cell lines; Homo sapiens, HT-29, 72 h, HT29, colon): 2.28 µM
IC50 (cancer cell lines; Homo sapiens, HT-1080, 72 h, HT1080, connective tissue): 3.88 µM
IC50 (cancer cell lines; Homo sapiens, HeLa, endometrial): 1.2 µM
IC50 (cancer cell lines; Homo sapiens, HepG2, 72 h, HEPG2, liver): 1.24 µM
IC50 (cancer cell lines; Homo sapiens, Hs-578T, HS578T, breast): > 50 µM
IC50 (cancer cell lines; Homo sapiens, IGROV-1, 72 h, IGROV1, ovary): 2.76 µM
IC50 (cancer cell lines; Homo sapiens, IMR-90, 72 h, IMR90, lung): > 50 µM
IC50 (cancer cell lines; Homo sapiens, JEG-3, 72 h, JEG3, placenta): > 50 µM
IC50 (cancer cell lines; Homo sapiens, JIMT-1, 72 h, JIMT1, breast): 2.04 µM
IC50 (cancer cell lines; Homo sapiens, K562, 72 h, K-562, hematological): > 50 µM
IC50 (cancer cell lines; Homo sapiens, Kasumi 1, 72 h, KASUMI-1, hematological): 0.1 µM
IC50 (cancer cell lines; Homo sapiens, L-363, 72 h, L-363, hematological): > 50 µM
IC50 (cancer cell lines; Homo sapiens, LoVo, colon): 3.1 µM
IC50 (cancer cell lines; Homo sapiens, MCF7, 72 h, MCF7, breast): 5.95 µM
IC50 (cancer cell lines; Homo sapiens, MDA-MB-231, 72 h, MDAMB231, breast): 1.32 µM
IC50 (cancer cell lines; Homo sapiens, MDA-MB-435, 72 h, MDAMB435, skin): > 50 µM
IC50 (cancer cell lines; Homo sapiens, MDA-MB-436, 72 h, MDAMB436, breast): 1.5 µM
IC50 (cancer cell lines; Homo sapiens, MDA-MB-468, 72 h, MDAMB468, breast): > 50 µM
IC50 (cancer cell lines; Homo sapiens, MG-63, 72 h, MG63, bone): > 50 µM
IC50 (cancer cell lines; Homo sapiens, MHH-ES-1, 72 h, MHHES1, bone): > 50 µM
IC50 (cancer cell lines; Homo sapiens, MIA PaCa-2, 72 h, MIAPACA2, pancreas): 6.24 µM
IC50 (cancer cell lines; Homo sapiens, MINO, hematological): 0.46 µM
IC50 (cancer cell lines; Homo sapiens, MV4-11, 72 h, MV4-11, hematological): 1.02 µM
IC50 (cancer cell lines; Homo sapiens, NCI-H23, 72 h, NCI-H23, lung): 4.67 µM
IC50 (cancer cell lines; Homo sapiens, NCI-H82, 72 h, NCIH82, lung): 15.4 µM
IC50 (cancer cell lines; Homo sapiens, NCI-H292, 72 h, NCIH292, lung): 1.07 µM
IC50 (cancer cell lines; Homo sapiens, NCI-H460, 72 h, NCIH460, ung): 1.41 µM
IC50 (cancer cell lines; Homo sapiens, OVCAR-3, 72 h, OVCAR3, ovary): 0.76 µM
IC50 (cancer cell lines; Homo sapiens, OVCAR-4, 72 h, OVCAR4, ovary): > 50 µM
IC50 (cancer cell lines; Homo sapiens, PANC-1, 72 h, PANC1, pancreas): > 50 µM
IC50 (cancer cell lines; Homo sapiens, PLC-PRF-5, 72 h, PLCPRF5, liver): 2.1 µM
IC50 (cancer cell lines; Homo sapiens, Panc1005, 72 h, PANC1005, pancreas): 3.08 µM
IC50 (cancer cell lines; Homo sapiens, Ramos, hematological): 1.17 µM
IC50 (cancer cell lines; Homo sapiens, SAOS-2, 72 h, SAOS2, bone): 1.66 µM
IC50 (cancer cell lines; Homo sapiens, SF-268, 72 h, SF268, brain): > 50 µM
IC50 (cancer cell lines; Homo sapiens, SF-295, 72 h, SF295, brain): 7.16 µM
IC50 (cancer cell lines; Homo sapiens, SK-BR-3, 72 h, SKBR3, breast): 4.61 µM
IC50 (cancer cell lines; Homo sapiens, SK-HEP1, 72 h, SKHEP1, liver): 2.29 µM
IC50 (cancer cell lines; Homo sapiens, SK-LMS-1, 72 h, SKLMS1, uterus): 2.38 µM
IC50 (cancer cell lines; Homo sapiens, SK-MEL-5, 72 h, SKMEL5, skin): > 50 µM
IC50 (cancer cell lines; Homo sapiens, SK-MEL-28, 72 h, SKMEL28, skin): 6.06 µM
IC50 (cancer cell lines; Homo sapiens, SK-N-AS, SKNAS, brain): 2.44 µM
IC50 (cancer cell lines; Homo sapiens, SK-N-SH, SKNSH, brain): 2.29 µM
IC50 (cancer cell lines; Homo sapiens, SK-OV-3, 72 h, SKOV3, ovary): 2.02 µM
IC50 (cancer cell lines; Homo sapiens, SNB-75, 72 h, SNB75, brain): 12.8 µM
IC50 (cancer cell lines; Homo sapiens, SU-DHL10, 72 h, SU-DHL-10, hematological): 5.6 µM
IC50 (cancer cell lines; Homo sapiens, SU-DHL-6, 72 h, SU-DHL-6, hematological): 4.19 µM
IC50 (cancer cell lines; Homo sapiens, SW-620, 72 h, SW620, colon): 1.82 µM
IC50 (cancer cell lines; Homo sapiens, TE-671, 72 h, TE671, muscle): > 50 µM
IC50 (cancer cell lines; Homo sapiens, THP-1, 72 h, THP-1, hematological): 1.97 µM
IC50 (cancer cell lines; Homo sapiens, U2OS, bone): > 50 µM
IC50 (cancer cell lines; Homo sapiens, U-87 MG, U87MG, brain): 2.38 µM
IC50 (cancer cell lines; Homo sapiens, UMUC3, 72 h, UMUC3, bladder): > 50 µM
IC50 (cancer cell lines; Homo sapiens, UO-31, 72 h, UO31, kidney): 3.29 µM
IC50 (cancer cell lines; Homo sapiens, WSU-NHL, hematological): 2.77 µM
IC50 (cancer cell lines; NCI-H358M, NCIH358M, lung): 0.33 µM
IC50 (cancer cell lines; PBMC, hematological): 0.19 µM
IC50 (cancer cell lines; RD-ES, RDES, bone): 2.48 µM

From US20230293526A1, “METHOD FOR TREATING CANCER WITH A REVERSE TRANSCRIPTASE INHIBITOR” (PrimeFour Therapeutics, Inc., priority 2020, published 2023)
